Laboratory results: PubChem BioAssay (NCI)
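Assay format: 96-well plates, 48-hour exposure. The concentration for 50% growth inhibition is given as GI50. The concentration for full growth arrest is given as TGI.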

Legend:
Assay in all cases: DTP human tumour cell line panel, 48 h
[1] = tested on: ACHN renal
[2] = tested on: HCT-116 colon
[3] = tested on: HL-60(TB) leukemia
[4] = tested on: HOP-92 NSCLC
[5] = tested on: M14 melanoma
[6] = tested on: MDA-MB-231 breast
[7] = tested on: MOLT-4 leukemia
[8] = tested on: NCI-H226 lung
[9] = tested on: SF-539 CNS
[10] = tested on: SK-MEL-5 melanoma

Compound | GI50 [1] | TGI [1] | GI50 [2] | TGI [2] | GI50 [3] | TGI [3] | GI50 [4] | TGI [4] | GI50 [5] | TGI [5] | GI50 [6] | TGI [6] | GI50 [7] | TGI [7] | GI50 [8] | TGI [8] | GI50 [9] | TGI [9] | GI50 [10] | TGI [10]
COc1ccc(C2CC(c3ccc(OC)c(OC)c3)=NN2C(=O)c2cc(OC)c(OC)c(OC)c2)cc1 (configuration not stated) | 2.41 µM | > 100 µM | 2.23 µM | > 100 µM | 2.4 µM | > 32 µM | 0.168 µM | 0.841 µM | 1.95 µM | > 100 µM | 3.09 µM | > 100 µM | 7.36 µM | > 100 µM | 3.06 µM | > 100 µM | 1.36 µM | > 21.7 µM | 0.558 µM | 4.83 µM
C[As](C)SCC(COC(=O)c1ccccc1)OC(=O)c1ccccc1 (configuration not stated) | 0.0369 µM | 0.285 µM | 0.0292 µM | 0.434 µM | 0.0161 µM | 0.1 µM | 0.216 µM | 1.74 µM | 0.0588 µM | 1.86 µM | 0.463 µM | 2.97 µM | 0.013 µM | 0.154 µM | 1.09 µM | 3.75 µM | 0.271 µM | 0.775 µM | 0.015 µM | 0.0678 µM
CCCC1C2=C(C(=O)OC2=O)C2C(CC)CC3=C(C(=O)OC3=O)C12 (configuration not stated) |  | > 100 µM |  | > 100 µM |  | > 100 µM |  | > 100 µM |  | > 100 µM |  | > 100 µM |  | > 100 µM |  | > 100 µM |  | > 100 µM |  | > 100 µM
COC(=O)c1cc2c([nH]c3ccccc32)c(-c2nc3cc(N(S(=O)(=O)c4ccc(C)cc4)S(=O)(=O)c4ccc(C)cc4)c(OC)cc3cc2CO)n1 | > 100 µM | > 100 µM | > 100 µM | > 100 µM | 31.7 µM | 75.7 µM | > 100 µM | > 100 µM | > 100 µM | > 100 µM | 78.6 µM | > 100 µM | 10.6 µM | 25.7 µM | > 100 µM | > 100 µM | 56.1 µM | > 100 µM | > 100 µM | > 100 µM
CNCc1ccc(C)c(NC(=O)c2ccc(Nc3nc(-c4ccccc4)c4ccccc4n3)cc2)c1 | 2.01 µM | 3.82 µM | 1.68 µM | 3.1 µM | 1.92 µM | 4.33 µM | 0.687 µM | 3.24 µM | 1.83 µM | 3.4 µM | 1.74 µM | 3.43 µM | 2.1 µM | 4.76 µM | 1.98 µM | 4.9 µM | 1.82 µM | 3.46 µM | 1.71 µM | 3.12 µM
COc1cc2c(c(OC)c1OC)-c1c(c3ccc([N+](=O)[O-])cc3c(=O)n1CCCN=[N+]=[N-])C2=O | 14.1 µM | 39.6 µM | 14.2 µM | 38 µM | > 100 µM | > 100 µM | 21.5 µM | 80.2 µM | 34.4 µM | > 100 µM | 19.1 µM | 56.3 µM | > 100 µM | > 100 µM | 28.4 µM | 71.8 µM | 13.5 µM | 43.1 µM | > 100 µM | > 100 µM
CCCCc1ccc(C(N)=O)nc1 | > 100 µM | > 100 µM | > 100 µM | > 100 µM | > 100 µM | > 100 µM | > 100 µM | > 100 µM | > 100 µM | > 100 µM | > 100 µM | > 100 µM | > 100 µM | > 100 µM | > 100 µM | > 100 µM | > 100 µM | > 100 µM | > 100 µM | > 100 µM
O=C1/C(=C/c2ccc([N+](=O)[O-])s2)Oc2ccc(Cl)cc21 | 0.234 µM | 0.595 µM | 0.222 µM | 0.535 µM | 0.423 µM | 2.15 µM | 0.176 µM | 0.519 µM | 0.512 µM | 1.52 µM | 0.231 µM | 0.586 µM | 0.371 µM | 2.47 µM | 1.39 µM | 3.93 µM | 0.219 µM | 0.583 µM | 0.343 µM | 0.86 µM
N#CC1=C(N)Oc2c(ccc3ccccc23)C1c1ccccc1Cl (configuration not stated) | 0.718 µM | 19.6 µM | 0.275 µM | 5.41 µM | 0.27 µM | 0.776 µM | 2.24 µM | 15.1 µM | 0.188 µM | 3.39 µM | 0.571 µM | 14.6 µM | 0.447 µM | 17.8 µM | 1.52 µM | 13.2 µM | 0.233 µM | 0.792 µM | 0.487 µM | 4.87 µM
COc1ccc(/C(C)=C(\c2ccc(Cl)cc2)c2ccc(OCCN3CCCCC3)cc2)cc1F | 4.93 µM | 14.4 µM | 2.04 µM | 5.14 µM | 2.85 µM | 6.82 µM | 2.5 µM | 6.08 µM | 2.61 µM | 6.17 µM | 3.04 µM | 5.71 µM | 3.4 µM | 11.3 µM | 4.35 µM | > 16.7 µM | 2.42 µM | 4.67 µM | 2.76 µM | 5.1 µM
Cn1cnc2nc(Cl)nc(Cl)c21 | 1.44 µM | 18.5 µM | 0.323 µM | 13.3 µM | 3.16 µM | 8.08 µM | 2.09 µM | 10.5 µM |  |  | 4.26 µM | 33.2 µM | 5.26 µM | 36.2 µM | 12.4 µM | 31.4 µM | 0.924 µM | 5.53 µM | 2.7 µM | 10.8 µM
CC(=O)OC1C(OC/C2=C/C3[C@@H](C(C)C)CC=C(C)[C@@H]3CC(OC(=O)/C=C/c3cn(C)cn3)[C@]3(C)C=C[C@@]2(O)O3)OCC(O)C1O (some centres not stated) | 0.381 µM | > 50 µM | 0.011 µM | > 50 µM | 0.0164 µM | 1.51 µM | 1.02 µM | > 50 µM |  |  | 0.421 µM | > 50 µM | 0.0415 µM | > 50 µM |  | > 50 µM | 0.0123 µM | 0.0598 µM | 0.0165 µM | 
N#Cc1c(-c2ccc(Cl)cc2)n([O-])c2ccccc2[n+]1=O | 4.2 µM | 16.8 µM | 3.03 µM | 11.1 µM | 3.1 µM | 11.4 µM | 1.61 µM | 3.24 µM |  |  | 6.95 µM | 24.2 µM | 2.31 µM | 4.77 µM | 18.1 µM | 46.7 µM | 17.9 µM | 36 µM | 15.9 µM | 31.7 µM
